Earlier results in patent publication US20050136114A1, “Taste masked pharmaceutical compositions comprising bitter drug and pH sensitive polymer” (COUNCIL OF SCIENTIFIC AND INDUSTRIAL RESEARCH, priority 2003, published 2005).

Columns and labels:
[1] = oral, humans
[2] = in presence of Eudragit E

CO/N=C(\C(=O)N[C@@H]1C(=O)N2C(C(=O)OC(C)OC(C)=O)=C(COC(N)=O)CS[C@H]12)c1ccco1 (some centres unmarked) [cefuroxime axetil]
bioavailability [1]: 32-50%
degradation [2]: significant degradation
